From patent US9505735B2, “Compounds for treating infectious diseases” (Whitehead Institute for Biomedical Research, priority 2012, dated 2016)

How the values were obtained:
[1] = tested on: amphotericin B-resistant or fluconazole-resistant C. albicans; assay: Co-culture of mammalian cells and C. albicans: fungal proliferation; assay type: cell-based; conditions: 40 μM, 24 hours, serum-containing medium
Experimental: For co-culture experiments, confluent layers of NIH 3T3 cells were established in 6-well plates. The following day, the medium was replaced with RPMI1640+10% FBS containing the amphotericin-resistant strain CaAmphR at […] colony forming units per ml and 40 μM gepinacin or an equivalent amount of DMSO. Co-cultures were incubated for 24 hours at 37° C. in a micro-isolator box. Images were acquired on a Nikon Eclipse TS100 microscope at 40×.
Having determined the target of gepinacin in fungi, gepinacin's effect on the human ortholog of Gwt1, PIG-W, was examined. To determine if gepinacin remained active under mammalian cell culture conditions cultured fungi were cultured (either an amphotericin B-resistant (FIG. 3a) or fluconazole-resistant (data not shown) isolate of C. albicans) and mammalian cells together with 40 μM gepinacin. […] PIG-W (and GPI anchor biosynthesis) is not essential for mammalian cells in culture.

Gwt1 = molecular target: T1, Gwt1 (Saccharomyces cerevisiae, UniProt P47026); assay: Antifungal susceptibility testing, screening strains with plasmid-borne GWT1 (low or high copy); assay type: cell-based, S. cerevisiae
T1 construct: Wildtype S. cerevisiae BY4741; endogenous in cells; host or cells: S. cerevisiae BY4741 (wild type)
T1 sequence (P47026 1-490): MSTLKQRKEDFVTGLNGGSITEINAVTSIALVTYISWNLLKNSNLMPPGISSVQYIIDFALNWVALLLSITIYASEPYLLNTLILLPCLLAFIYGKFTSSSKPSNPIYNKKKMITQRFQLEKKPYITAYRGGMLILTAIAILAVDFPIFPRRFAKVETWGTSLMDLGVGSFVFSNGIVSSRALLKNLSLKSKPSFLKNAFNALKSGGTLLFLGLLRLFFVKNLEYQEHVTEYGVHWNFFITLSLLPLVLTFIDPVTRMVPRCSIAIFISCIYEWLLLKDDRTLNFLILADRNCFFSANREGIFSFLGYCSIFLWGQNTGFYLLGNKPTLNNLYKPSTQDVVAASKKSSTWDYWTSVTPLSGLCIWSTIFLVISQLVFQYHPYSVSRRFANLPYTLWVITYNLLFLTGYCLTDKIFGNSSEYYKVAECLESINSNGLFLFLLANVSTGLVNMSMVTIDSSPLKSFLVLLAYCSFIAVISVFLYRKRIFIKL
Experimental: Sensitivity to gepinacin was determined in 96-well, flat bottom microtiter plates using a modification of the NCCLS broth microdilution protocol CLS M27-A3 and RPMI as culture medium. Fungi were inoculated at ˜10^3 cells per ml and incubated for 48 hours at 37° C. after which plates were sealed, shaken and the optical density read at 600 nm (OD600) on a Tecan Safire 2 plate reader. All samples were run in duplicate or triplicate and assays were repeated at least once. Results are expressed as fraction of growth in the absence of compound and the mean and standard deviation are plotted. For the mold A. terreus, inoculum was 10^4 cells per ml and plates were incubated at 35° C. for 48 hours in the dark. Plates were then visually scored as specified by CLSI document M38-A2 to determine the MIC50 and MIC80.
Because GWT1 deletion is lethal in S. cerevisiae strain BY4741, a haploid shuttle strain was constructed in which the genomic copy of GWT1 was deleted and replaced by GWT1 on a plasmid that also encoded the URA3 gene and a G418-resistance gene. To construct this shuttle strain a gwt1Δ/GWT1 heterozygous deletion mutant was transformed with pAGGPD416-GWT1, sporulated and dissected. A colony was selected that grew on both SD-URA and G418-containing plates. PCR with the deletion specific primers (http://wwwsequence.stanford.edu/group/yeast_deletion_project/deletions3.html) was performed to confirm the GWT1 deletion. To change the source of GWT, this shuttle strain was transformed with plasmids containing GWT1 (as a control) or PIG-W and the LEU2 auxotrophy gene followed by selection for growth on SD-LEU plates. Plasmids were constructed by conventional Gateway technology using a GWT1 encoding entry vector and either pAG415GPDccdB or pAG425GPDccdB as the destination vectors. Positive colonies were selected and grown on 5-fluoroorotic acid (5-FOA)-containing plates to promote loss of the pAGGPD416-GWT1 plasmid. The colonies from this plate were then tested for return of uridine auxotrophy to confirm pAGGPD416-GWT1 loss. The PIG-W expression vector was constructed by recombination in yeast as follows. The pAG415GPDccdB vector was cut with Xho1 and Xba1 and the larger piece was gel and column purified. The coding sequence of PIG-W was PCR amplified from the entry clone so that it would have ends facilitating recombination with the cut vector. The shuttle strain was then transformed with these two DNA fragments and plated on SD-LEU plates to select for recombinants. PIG-W plasmid was isolated from the final strain and sequence verified.
The following gepinacin analogs were tested for activity against Gwt1. Gepinacin, M3, CM2, CM4, CM6, CM7, CM8, and 857621-56-8 were available commercially. The compounds were tested using the “Antifungal Susceptibility Testing” protocol described above. Fungi tested are described in the “Fungal Strains” section above.
An S. cerevesiae strain was generated in which the endogenous Gwt1 gene was deleted. Plasmids (either high copy or low copy) with either S. cerevesiae or human Gwt1 were introduced to produce strains bearing such plasmids expressing either S. cerevesiae or human Gwt1 from a constitutive promoter. Yeast strains were cultured in liquid media in the presence of indicated compounds. Shown in FIGS. 22A-D show the effect of the indicated compounds on growth (assessed by OD600) and viability (assessed using Bactiter Glo) of the yeast strain with high copy or low copy plasmid containing S. cerevesiae Gwt1. The compounds had no effect on strains with the human Gwt1, thus showing the compounds' sensitivity for the fungal (yeast) Gwt1 gene.

SMILES: COc1ccc(NC(=O)COc2cccc(OCC(C)C)c2)cc1 [gepinacin]
- fungal proliferation in co-culture [1]: profound inhibition of proliferation
- cell growth of the strain expressing the yeast gene (GWT1) (Gwt1): potently inhibited
